Laboratory results from BindingDB's records for PubMed 20126400 (University of Oklahoma, 2010).

Assays:
Experiment in all cases: Ray2010 Assay 74
[1] = target: Sodium-dependent dopamine transporter (Homo sapiens, UniProt Q01959)
Source text: (§1) Table S2 shows raw Ki data for the current study combined with data collected from the literature for the ten additional compounds.

[2] = target: Kappa-type opioid receptor (Homo sapiens, UniProt P41145)
Source text: as §1

[3] = target: D(1B) dopamine receptor (Homo sapiens, UniProt P21918)
Sequence of D(1B) dopamine receptor (P21918 whole entry): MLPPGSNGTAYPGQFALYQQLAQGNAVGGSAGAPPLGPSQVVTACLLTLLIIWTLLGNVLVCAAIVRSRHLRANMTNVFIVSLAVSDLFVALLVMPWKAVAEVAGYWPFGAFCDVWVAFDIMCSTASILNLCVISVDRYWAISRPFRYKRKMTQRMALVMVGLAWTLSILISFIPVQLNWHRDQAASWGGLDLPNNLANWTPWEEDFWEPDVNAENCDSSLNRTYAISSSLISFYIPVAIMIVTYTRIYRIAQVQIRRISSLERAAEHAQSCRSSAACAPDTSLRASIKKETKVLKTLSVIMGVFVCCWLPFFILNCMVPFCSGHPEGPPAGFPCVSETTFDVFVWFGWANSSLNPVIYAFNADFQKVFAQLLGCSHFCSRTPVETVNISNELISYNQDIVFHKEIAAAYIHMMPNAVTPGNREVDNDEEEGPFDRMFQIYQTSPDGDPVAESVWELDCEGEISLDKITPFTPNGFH
Source text: as §1

[4] = target: T1, Muscarinic acetylcholine receptor M5 (Homo sapiens, UniProt P08912)
T1 sequence (P08912 whole entry): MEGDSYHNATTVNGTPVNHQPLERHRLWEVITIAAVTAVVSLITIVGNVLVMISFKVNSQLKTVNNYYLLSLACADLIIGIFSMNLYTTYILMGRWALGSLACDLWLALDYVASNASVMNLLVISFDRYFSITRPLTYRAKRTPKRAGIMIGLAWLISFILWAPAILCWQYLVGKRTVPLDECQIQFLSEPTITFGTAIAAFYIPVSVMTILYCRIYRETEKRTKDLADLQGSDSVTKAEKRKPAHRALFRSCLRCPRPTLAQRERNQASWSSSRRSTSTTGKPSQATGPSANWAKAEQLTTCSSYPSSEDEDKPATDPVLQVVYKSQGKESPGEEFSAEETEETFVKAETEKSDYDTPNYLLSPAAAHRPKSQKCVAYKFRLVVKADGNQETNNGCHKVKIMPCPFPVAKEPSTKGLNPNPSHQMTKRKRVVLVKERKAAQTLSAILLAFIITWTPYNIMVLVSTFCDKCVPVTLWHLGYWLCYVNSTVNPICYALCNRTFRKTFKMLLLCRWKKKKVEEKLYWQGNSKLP
Source text: as §1

[5] = target: T2, Muscarinic acetylcholine receptor M2 (Homo sapiens, UniProt P08172)
T2 sequence (P08172 whole entry): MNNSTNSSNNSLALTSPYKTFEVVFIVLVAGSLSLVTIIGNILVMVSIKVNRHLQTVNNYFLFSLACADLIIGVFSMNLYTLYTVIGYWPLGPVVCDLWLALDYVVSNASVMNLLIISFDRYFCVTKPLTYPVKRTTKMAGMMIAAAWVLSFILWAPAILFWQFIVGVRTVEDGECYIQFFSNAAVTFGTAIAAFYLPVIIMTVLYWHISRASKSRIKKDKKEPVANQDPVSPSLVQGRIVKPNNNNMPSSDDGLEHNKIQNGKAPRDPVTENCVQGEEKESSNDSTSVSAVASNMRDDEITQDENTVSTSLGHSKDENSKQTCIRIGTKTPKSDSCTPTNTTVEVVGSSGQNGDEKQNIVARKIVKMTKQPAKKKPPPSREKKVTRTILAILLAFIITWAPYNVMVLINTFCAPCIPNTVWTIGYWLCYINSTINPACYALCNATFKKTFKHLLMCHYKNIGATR
Source text: as §1

[6] = target: Sodium-dependent noradrenaline transporter (Homo sapiens, UniProt P23975)
Sequence of Sodium-dependent noradrenaline transporter (P23975 whole entry): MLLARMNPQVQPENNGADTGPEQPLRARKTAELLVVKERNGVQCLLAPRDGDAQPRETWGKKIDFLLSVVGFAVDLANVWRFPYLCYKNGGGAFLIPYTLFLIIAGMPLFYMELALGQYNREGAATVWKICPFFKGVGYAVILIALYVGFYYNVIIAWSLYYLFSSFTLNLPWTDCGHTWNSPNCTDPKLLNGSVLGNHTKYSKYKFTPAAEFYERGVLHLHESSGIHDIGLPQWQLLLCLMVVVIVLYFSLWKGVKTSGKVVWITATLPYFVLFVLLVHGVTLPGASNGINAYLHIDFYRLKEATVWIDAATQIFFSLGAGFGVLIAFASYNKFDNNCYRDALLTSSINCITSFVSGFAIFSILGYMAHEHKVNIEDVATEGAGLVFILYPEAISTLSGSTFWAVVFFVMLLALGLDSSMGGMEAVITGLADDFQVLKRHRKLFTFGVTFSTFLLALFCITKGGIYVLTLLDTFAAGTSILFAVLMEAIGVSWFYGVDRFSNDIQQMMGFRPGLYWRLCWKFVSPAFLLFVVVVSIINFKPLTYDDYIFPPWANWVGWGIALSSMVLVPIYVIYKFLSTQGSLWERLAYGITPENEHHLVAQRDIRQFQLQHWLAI
Source text: as §1

[7] = target: T3, Alpha-1A adrenergic receptor (Homo sapiens, UniProt P35348)
T3 sequence (P35348 whole entry): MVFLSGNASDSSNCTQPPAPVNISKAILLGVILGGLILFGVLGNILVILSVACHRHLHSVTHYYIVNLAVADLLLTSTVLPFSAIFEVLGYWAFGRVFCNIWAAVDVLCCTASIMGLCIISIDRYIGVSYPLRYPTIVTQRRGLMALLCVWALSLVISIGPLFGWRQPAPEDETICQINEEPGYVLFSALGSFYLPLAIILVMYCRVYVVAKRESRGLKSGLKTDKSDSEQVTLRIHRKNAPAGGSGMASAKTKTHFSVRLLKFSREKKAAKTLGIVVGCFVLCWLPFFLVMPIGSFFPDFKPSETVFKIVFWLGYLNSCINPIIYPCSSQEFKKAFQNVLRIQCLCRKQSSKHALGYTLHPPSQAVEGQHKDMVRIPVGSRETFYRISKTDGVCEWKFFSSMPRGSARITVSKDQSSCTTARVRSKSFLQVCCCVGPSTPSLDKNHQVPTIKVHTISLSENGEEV
Source text: as §1

[8] = target: Histamine H2 receptor (Homo sapiens, UniProt P25021)
Sequence of Histamine H2 receptor (P25021 whole entry): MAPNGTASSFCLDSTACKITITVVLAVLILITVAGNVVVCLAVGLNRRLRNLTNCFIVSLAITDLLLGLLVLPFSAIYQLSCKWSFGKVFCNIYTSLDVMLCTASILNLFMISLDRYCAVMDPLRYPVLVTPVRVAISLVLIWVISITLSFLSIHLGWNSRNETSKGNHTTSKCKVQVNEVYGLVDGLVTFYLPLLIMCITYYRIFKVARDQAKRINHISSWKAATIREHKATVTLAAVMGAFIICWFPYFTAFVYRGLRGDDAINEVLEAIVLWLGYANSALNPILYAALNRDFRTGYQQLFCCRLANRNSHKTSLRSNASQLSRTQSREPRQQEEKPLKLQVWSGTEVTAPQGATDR
Source text: as §1

[9] = target: Histamine H1 receptor (Homo sapiens, UniProt P35367)
Sequence of Histamine H1 receptor (P35367 whole entry): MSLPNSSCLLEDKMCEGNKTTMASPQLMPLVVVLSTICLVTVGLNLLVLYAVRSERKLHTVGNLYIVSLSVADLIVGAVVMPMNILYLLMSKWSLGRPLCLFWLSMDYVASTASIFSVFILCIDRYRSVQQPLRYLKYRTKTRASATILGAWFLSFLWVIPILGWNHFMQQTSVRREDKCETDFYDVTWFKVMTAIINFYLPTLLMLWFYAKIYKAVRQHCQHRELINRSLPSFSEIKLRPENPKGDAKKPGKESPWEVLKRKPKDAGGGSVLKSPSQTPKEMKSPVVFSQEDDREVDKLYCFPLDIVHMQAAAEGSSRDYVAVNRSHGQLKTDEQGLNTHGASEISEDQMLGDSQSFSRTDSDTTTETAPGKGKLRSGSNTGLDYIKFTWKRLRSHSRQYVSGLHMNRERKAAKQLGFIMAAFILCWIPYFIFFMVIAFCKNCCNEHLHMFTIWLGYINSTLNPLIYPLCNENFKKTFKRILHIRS
Source text: as §1

[10] = target: T4, Alpha-1B adrenergic receptor (Homo sapiens, UniProt P35368)
T4 sequence (P35368 whole entry): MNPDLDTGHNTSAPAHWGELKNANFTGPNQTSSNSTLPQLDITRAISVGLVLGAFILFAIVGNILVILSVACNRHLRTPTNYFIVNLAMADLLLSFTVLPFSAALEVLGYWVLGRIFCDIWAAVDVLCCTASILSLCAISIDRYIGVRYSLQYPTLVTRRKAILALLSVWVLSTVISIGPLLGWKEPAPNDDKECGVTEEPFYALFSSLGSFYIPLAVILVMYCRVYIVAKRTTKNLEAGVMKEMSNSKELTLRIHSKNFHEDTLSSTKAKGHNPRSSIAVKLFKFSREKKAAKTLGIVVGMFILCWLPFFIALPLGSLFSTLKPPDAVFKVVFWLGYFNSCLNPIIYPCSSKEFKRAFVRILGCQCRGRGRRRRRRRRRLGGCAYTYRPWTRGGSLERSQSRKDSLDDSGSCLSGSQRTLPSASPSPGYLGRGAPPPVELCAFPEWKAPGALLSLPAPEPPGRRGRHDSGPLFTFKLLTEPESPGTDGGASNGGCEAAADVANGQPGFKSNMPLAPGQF
Source text: as §1

[11] = target: 5-hydroxytryptamine receptor 5A (Homo sapiens, UniProt P47898)
Sequence of 5-hydroxytryptamine receptor 5A (P47898 whole entry): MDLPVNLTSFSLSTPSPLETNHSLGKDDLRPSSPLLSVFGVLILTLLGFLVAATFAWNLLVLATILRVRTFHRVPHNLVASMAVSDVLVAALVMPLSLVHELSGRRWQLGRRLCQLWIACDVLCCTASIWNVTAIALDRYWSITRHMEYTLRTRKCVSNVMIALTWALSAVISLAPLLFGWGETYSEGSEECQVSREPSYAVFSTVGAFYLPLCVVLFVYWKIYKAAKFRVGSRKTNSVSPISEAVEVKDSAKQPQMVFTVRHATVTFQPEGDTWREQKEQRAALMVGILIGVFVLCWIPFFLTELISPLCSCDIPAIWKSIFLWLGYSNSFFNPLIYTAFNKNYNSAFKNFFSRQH
Source text: as §1

[12] = target: 5-hydroxytryptamine receptor 1B (Homo sapiens, UniProt P28222)
Sequence of 5-hydroxytryptamine receptor 1B (P28222 whole entry): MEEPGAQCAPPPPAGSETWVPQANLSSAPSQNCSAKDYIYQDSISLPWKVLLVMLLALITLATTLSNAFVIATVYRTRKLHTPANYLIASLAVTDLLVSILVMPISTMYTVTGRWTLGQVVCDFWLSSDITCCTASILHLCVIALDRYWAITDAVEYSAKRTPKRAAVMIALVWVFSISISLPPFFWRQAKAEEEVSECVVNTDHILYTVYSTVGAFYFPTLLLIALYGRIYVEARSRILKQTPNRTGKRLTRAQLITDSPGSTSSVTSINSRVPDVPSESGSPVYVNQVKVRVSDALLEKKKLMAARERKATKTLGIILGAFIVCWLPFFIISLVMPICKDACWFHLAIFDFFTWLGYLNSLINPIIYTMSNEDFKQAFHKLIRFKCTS
Source text: as §1

[13] = target: D(2) dopamine receptor (Homo sapiens, UniProt P14416)
Sequence of D(2) dopamine receptor (P14416 whole entry): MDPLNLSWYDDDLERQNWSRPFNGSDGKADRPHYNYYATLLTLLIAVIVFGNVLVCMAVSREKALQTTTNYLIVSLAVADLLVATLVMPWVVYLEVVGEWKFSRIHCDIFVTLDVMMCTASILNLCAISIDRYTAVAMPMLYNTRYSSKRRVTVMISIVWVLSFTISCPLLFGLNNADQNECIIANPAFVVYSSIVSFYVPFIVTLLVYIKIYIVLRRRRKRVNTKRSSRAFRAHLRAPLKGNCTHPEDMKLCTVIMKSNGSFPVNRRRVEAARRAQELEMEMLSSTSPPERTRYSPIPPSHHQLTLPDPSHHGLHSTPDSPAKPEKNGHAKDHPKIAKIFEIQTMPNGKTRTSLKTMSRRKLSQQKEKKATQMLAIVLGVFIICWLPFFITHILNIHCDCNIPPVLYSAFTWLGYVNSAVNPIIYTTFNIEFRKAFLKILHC
Source text: as §1

[14] = target: D(1A) dopamine receptor (Homo sapiens, UniProt P21728)
Sequence of D(1A) dopamine receptor (P21728 whole entry): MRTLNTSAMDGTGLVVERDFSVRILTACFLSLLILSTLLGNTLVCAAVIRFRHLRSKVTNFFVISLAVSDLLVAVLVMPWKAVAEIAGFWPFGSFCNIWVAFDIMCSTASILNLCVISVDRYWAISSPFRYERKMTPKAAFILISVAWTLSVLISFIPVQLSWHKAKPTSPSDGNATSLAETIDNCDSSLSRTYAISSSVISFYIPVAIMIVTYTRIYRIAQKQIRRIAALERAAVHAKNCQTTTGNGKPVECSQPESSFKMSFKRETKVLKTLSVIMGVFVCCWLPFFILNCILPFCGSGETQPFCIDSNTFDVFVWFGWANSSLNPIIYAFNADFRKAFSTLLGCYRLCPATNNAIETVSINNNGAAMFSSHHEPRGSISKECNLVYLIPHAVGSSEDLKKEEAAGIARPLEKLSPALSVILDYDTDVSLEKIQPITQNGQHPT
Source text: as §1

Sequence of Kappa-type opioid receptor (P41145 whole entry): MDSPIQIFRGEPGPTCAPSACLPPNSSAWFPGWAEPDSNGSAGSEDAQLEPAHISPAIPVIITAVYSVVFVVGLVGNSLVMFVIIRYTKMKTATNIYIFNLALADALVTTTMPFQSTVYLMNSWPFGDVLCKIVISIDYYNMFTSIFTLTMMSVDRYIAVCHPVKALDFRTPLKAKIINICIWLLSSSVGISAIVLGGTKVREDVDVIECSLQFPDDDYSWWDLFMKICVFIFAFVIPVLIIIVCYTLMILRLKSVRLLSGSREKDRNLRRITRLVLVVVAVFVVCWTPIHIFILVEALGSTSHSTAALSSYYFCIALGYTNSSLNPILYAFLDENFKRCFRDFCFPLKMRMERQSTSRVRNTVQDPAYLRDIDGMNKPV
Sequence of Sodium-dependent dopamine transporter (Q01959 whole entry): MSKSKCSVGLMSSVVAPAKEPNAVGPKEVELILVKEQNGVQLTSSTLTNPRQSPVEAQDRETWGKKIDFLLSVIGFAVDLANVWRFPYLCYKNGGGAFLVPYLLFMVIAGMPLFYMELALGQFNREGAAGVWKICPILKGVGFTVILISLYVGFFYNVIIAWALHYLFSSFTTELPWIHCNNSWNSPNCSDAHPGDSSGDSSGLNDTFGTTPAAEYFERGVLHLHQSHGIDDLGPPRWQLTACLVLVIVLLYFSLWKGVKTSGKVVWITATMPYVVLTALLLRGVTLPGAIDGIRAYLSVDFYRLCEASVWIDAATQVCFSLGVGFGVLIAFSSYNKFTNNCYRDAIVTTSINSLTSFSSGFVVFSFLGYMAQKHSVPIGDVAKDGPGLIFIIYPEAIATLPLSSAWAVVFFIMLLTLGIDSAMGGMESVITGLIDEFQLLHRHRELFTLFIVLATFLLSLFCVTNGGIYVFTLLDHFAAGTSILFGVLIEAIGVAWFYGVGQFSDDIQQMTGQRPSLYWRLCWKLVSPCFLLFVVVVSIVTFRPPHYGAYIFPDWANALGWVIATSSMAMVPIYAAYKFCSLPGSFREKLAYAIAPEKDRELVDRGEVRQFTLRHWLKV

Row | Compound | Ki [1] [µM] | Ki [2] [µM] | Ki [3] [µM] | Ki [4] [µM] | Ki [5] [µM] | Ki [6] [µM] | Ki [7] [µM] | Ki [8] [µM] | Ki [9] [µM] | Ki [10] [µM] | Ki [11] [µM] | Ki [12] [µM] | Ki [13] [µM] | Ki [14] [µM]
1 | CCSc1cc(OC)c(CC(N)CC)cc1OC (stereo unspecified) [1-(4-Ethylsulfanyl-2,5-dimethoxy-benzyl)-propylamine] | > 10 | > 10 | > 10 | > 10 | > 10 | > 10 | > 10 | > 10 | > 10 | > 10 | 1.59 | > 10 | > 10 | > 10
2 | CCc1cc(OC)c(CCN)cc1OC [2-(2,5-dimethoxy-4-ethylphenyl)ethylamine] | > 10 | > 10 | > 10 | 1.73 | > 10 | > 10 | > 10 | > 10 | > 10 | > 10 | > 10 | 0.253 | 3.34 | > 10
3 | COc1cc(CC(C)N)c(OC)cc1Br (stereo not drawn) [2-(4-Bromo-2,5-dimethoxy-phenyl)-1-methyl-ethylamine((-)-DOB)] | > 10 | > 10 | > 10 | > 10 | > 10 | > 10 | > 10 | > 10 | 9.12 | > 10 | 5.31 | 0.941 | > 10 | > 10
4 | CCSc1cc(OC)c(CC(C)N)cc1OC (stereo unspecified) [2-(4-Ethylsulfanyl-2,5-dimethoxy-phenyl)-1-methyl-ethylamine] | > 10 | > 10 | > 10 | 8.02 | > 10 | > 10 | > 10 | > 10 | > 10 | > 10 | > 10 | 2.04 | > 10 | > 10
5 | NCCc1c2c(c(Br)c3c1OCC3)OCC2 [2-(8-Bromo-2,3,6,7-tetrahydro-benzo[1,2-b;4,5-b']difuran-4-yl)-ethylamine] | > 10 | > 10 | > 10 | 0.873 | 2.03 | > 10 | > 10 | > 10 | 5.75 | > 10 | > 10 | 0.185 | 6.84 | 4.96
6 | CCSc1cc(OC)c(CCN)cc1OC [2C-T-2] | > 10 | > 10 | > 10 | 1.5 | > 10 | > 10 | > 10 | > 10 | > 10 | > 10 | > 10 | 0.858 | 2.79 | > 10
7 | COc1cc(CCN)cc(OC)c1OC [3,4,5-trimethoxyphenylethylamine] | > 10 | > 10 | > 10 | > 10 | > 10 | > 10 | > 10 | > 10 | > 10 | > 10 | > 10 | > 10 | > 10 | > 10
8 | COc1ccc2[nH]cc(CCN(C)C(C)C)c2c1 [5-meo-mipt] | > 10 | > 10 | > 10 | > 10 | > 10 | > 10 | > 10 | > 10 | 4.82 | > 10 | 0.953 | 0.303 | > 10 | > 10
9 | CN(C)CCc1c[nH]c2cc(F)ccc12 [6-f-dmt] | > 10 | > 10 | 6.29 | > 10 | > 10 | > 10 | 0.173 | 0.925 | 0.0466 | > 10 | 0.96 | 0.218 | 0.61 | 0.547
10 | COc1cc(CC(C)N)c(OC)cc1C (stereo not drawn) [(+/-)2-(2,5-Dimethoxy-4-methyl-phenyl)-1-methyl-ethylamine] | > 10 | > 10 | > 10 | > 10 | > 10 | > 10 | 3.22 | > 10 | > 10 | > 10 | > 10 | > 10 | > 10 | > 10
11 | CC(C)N(CCc1c[nH]c2ccccc12)C(C)C [dipt] | > 10 | > 10 | > 10 | > 10 | > 10 | > 10 | > 10 | > 10 | 3.58 | > 10 | > 10 | > 10 | > 10 | > 10
12 | CCCN(CCC)CCc1c[nH]c2ccccc12 [dpt] | 1.5 | > 10 | > 10 | > 10 | > 10 | > 10 | 0.881 | > 10 | 0.125 | 0.443 | 4.37 | 0.854 | 9.25 | > 10
13 | CNC(C)Cc1ccc2c(c1)OCO2 (stereo unspecified) [mdma] | > 10 | > 10 | > 10 | 6.33 | > 10 | > 10 | > 10 | > 10 | > 10 | > 10 | > 10 | > 10 | > 10 | > 10
14 | CAS_82830-44-2::(2R)-1-(4-iodo-2,5-dimethoxyphenyl)propan-2-amine::DOI,(-)::US20250270173, Compound DOI | > 10 | > 10 | > 10 | 2.21 | 1.99 | > 10 | > 10 | > 10 | 1.76 | > 10 | > 10 | > 10 | > 10 | 9.69
